Assay: in vitro
Conditions: human, hela cells, % viability

SMILES | viability at 28.5 h, 10 µM [%]
Cc1cc(-c2ccc(=O)n(CCNC(=O)c3cccs3)n2)c(C)o1 [CBK284461] | 92.3
O=C(COc1ccccc1Cl)Nc1cccc(NC(=O)c2cccc(Cl)c2)c1 [CBK263651] | 106
Cc1ccc2[nH]c(Cc3ccc(NC(=O)CCc4nc5ccccc5[nH]4)cc3)nc2c1 [CBK285801] | 87
CN1CC(C(=O)N(C)Cc2nc(-c3ccccc3)no2)NC1=O (centres unmarked) [CBK306727] | 108
O=C(CSc1nnc(-c2cccnc2)n1-c1ccccc1)Nc1ccc(Br)cc1 [CBK265203] | 100
O=C(/C=C/c1cccc([N+](=O)[O-])c1)NCCN1CCOCC1 [CBK262283] | 90.5
O=C(NCC1(c2ccccc2)CCOCC1)c1ccno1 [CBK067408] | 98.2
Cc1ccc2nc(-c3ccccc3)c(CC(=O)O)c(C(=O)O)c2c1 [CBK265128] | 87.3
CC1(C)CC(NC(=O)C23CCC(C)(c4nc5ccccc5nc42)C3(C)C)CC(C)(C)N1 (centres unmarked) [CBK266559] | 99.3
NC(=O)C1CN(C(=O)CN2CCCc3ccccc32)c2ccccc2O1 (centres unmarked) [CBK295163] | 93.4
CC(=O)c1ccc(NC(=O)N2Cc3nc[nH]c3C[C@H]2c2nc(-c3ccc(F)cc3)no2)cc1 [CBK288971] | 83.6
COc1cc(NC(=O)CSc2ncnc3sc4c(c23)CCCC4)cc(OC)c1 [CBK267547] | 89.6
CN1CCC(C(=O)Nc2cnc(-c3cccc(OC(F)(F)F)c3)c(-c3cccnc3)n2)CC1 [CBK036882] | 108
Cc1ccc(Oc2c([N+](=O)[O-])c(C)nn2C)c(Br)c1 [CBK000283] | 90.6
O=C(C1CCCC1)N1CCCCC1c1n[nH]cc1-c1ccncc1 (centres unmarked) [CBK283427] | 90.4
O=C(O)C[C@@H]1CCN(C(=O)Nc2ccccc2)C[C@@H]1CCN1CCCCC1 [CBK288782] | 110
O=C(/C=C/c1cn([C@H]2C[C@@H](O)[C@@H](CO)O2)c(=O)[nH]c1=O)ON1C(=O)CCC1=O [CBK201188] | 99.3
Cc1cccc(-c2ncc(C(=O)NCc3csc4ccc(Cl)cc34)cc2-c2ccncc2)c1 [CBK036770] | 89.6
CCn1nc(C)c(CNC(=O)N(Cc2ccccn2)CC(C)C)c1C [CBK304193] | 92.1
O=C(O)CCc1nc(-c2ccncc2)no1 [CBK288558] | 98.7
CCc1nc2n(n1)CC(NCc1nc(C)ccc1O)CC2 (centres unmarked) [CBK306107] | 106
CCOC(CCNC(=O)c1cnc(Nc2ccccc2OC)c2ccccc12)OCC [CBK291184] | 68.3

SMILES | viability at 28.5 h, 10 µM [%]
O=C(c1cc(S(=O)(=O)N2CCOCC2)ccc1Cl)N1CCCCC1CO (centres unmarked) [CBK304579] | 88.6
O=C(c1cc(F)c(F)cc1F)N1CCC2(CCCN(Cc3cc(=O)[nH]c(=O)[nH]3)C2)C1 (centres unmarked) [CBK132010] | 101
O=C(c1cccc(CN2CCN(c3nc(-c4ccccc4)ns3)CC2)c1)N1CCC(O)CC1 [CBK074709] | 110
CS(=O)(=O)Nc1nccnc1OC1CCN(CCCn2c(=O)[nH]c3ccccc32)CC1 [CBK084277] | 91.8
COc1ccc(OCCNC(=O)c2ccc(C)nc2NCCCn2ccnc2)cc1 [CBK076385] | 117
CC(C)S(=O)(=O)n1ccn(-c2ccc3c(c2)OCO3)c1=O [CBK106630] | 90.9
CN1Cc2ccccc2-c2ccc(O)cc21 [CBK017804] | 97.2
CS(=O)(=O)c1ccc(NC(=S)N2CCN(c3ccc(F)cc3)CC2)cc1 [CBK300507] | 95.3
COc1cc(CNc2nc[nH]n2)ccc1OCc1ccc(C)cc1 [CBK269768] | 113
c1cc(-c2ccc(Nc3ccc(N4CCOCC4)cc3)nc2)cs1 [CBK036844] | 97.6
CCCC(NC(=O)Nc1ccnn1CC(C)C)c1nccn1C (centres unmarked) [CBK307444] | 92.7
CC(=O)N(C)c1nc(-c2ccccc2)ccc1C(=O)Nc1ccc2c(c1)OCO2 [CBK106342] | 96.8
Cn1nc(NC(=O)COCC(=O)O)c2ccccc21 [CBK057114] | 98.8
Cc1nc(N(C)C)ncc1C(=O)NCCSc1nnnn1C [CBK306673] | 93.1
C=CCn1c(N2CCC(C(=O)NC3CC3)CC2)nc2ccccc21 [CBK283924] | 86.4
COc1cncc(C(NC(=O)c2ccc3[nH]nnc3c2)[C@H]2C[C@@H](O)C2)c1 (some centres unmarked) [CBK307049] | 108
O=C(Nc1nc2ccccc2[nH]1)c1ccc(N2CCCS2(=O)=O)cc1 [CBK304582] | 98.6
COc1cc(CNc2cc(-c3ccsc3)ncn2)cc(OC)c1OC [CBK037794] | 92
CC(C)CSc1nc(O)cc(=O)n1Cc1ccccc1 [CBK291170] | 114
Cc1nn(C)cc1-c1cncn1CCCOc1ccc(Cl)cc1 [CBK281787] | 87.5
O=C(N[C@@H](Cc1ccc(O)cc1)C(=O)O)OCc1ccccc1 [CBK287012] | 94.8
COCOc1ccc(-c2ncc(OCCN3CCOCC3)nc2N)cc1 [CBK145100] | 87.7

— PMC12040169 (PLOS Biology, 2025)
